Values joined by “and” are separate entries in the source; they are usually repeats but may differ in a detail not shown here. Equal entries are not always repeated. Where two headings read alike, the source gives them in different places. Bridge positions count the residues as written; N and C are the ends. Square brackets hold non-standard residues; d marks the D form. Peptide text beside a SMILES is read from it. I, II: the chains in the order shown.
Assays:
[1] = test system: metastatic human breast (SUM 52 PE) and prostate (DU 145) cancer cell lines, human microvascular cells (hmvec); assay type: cell-based; details: for fold more potent than the unmodified PHSCN: SUM 52 PE and DU 145 invasion
Method: Some of the examples below employ an invasion assay utilizing naturally occurring basement membranes from 72 hour sea urchin embryos. Breast and prostate cancer invasion was induced with serum; hmvec invasion was induced with the PHSRN sequence of the plasma fibronectin (pFn) cell binding domain. The assay is described in U.S. Pat. No. 6,001,965, hereby incorporated by reference.
In this example, PHSCN peptides, where the sulfur of the SH group of cysteine was modified to block disulfide bond formation, were tested in an in vitro invasion assay utilizing naturally occurring basement membranes. More specifically, the invasion-inhibiting potencies of S-methylated and S-acetylated derivatives of the PHSCN (SEQ ID NO:1) peptide [i.e. Ac-PHSC(S—CH3)N—NH2 (SEQ ID NO:3) and Ac-PHSC(S—COCH3)N—NH2, (SEQ ID NO:4), respectively] were quantitated [in comparison with PHSCN (SEQ ID NO:1) dimerized by S—S bond formation] with two types of metastatic human cancer cell lines, i.e. a breast cell line (SUM 52 PE) and a prostate cell line (DU 145) (see FIG. 1 and FIG. 2, respectively). These modified peptides prevent breast cancer and prostate cancer invasion at concentrations in the pg/ml range.
In this example, PHSCN peptides, where two L-amino acids are substituted with D-amino acids, were tested in an in vitro invasion assay utilizing naturally occurring basement membranes. More specifically, the invasion-inhibiting potencies of Ac-PHScN—NH2 (SEQ ID NO:7), and Ac-PhScN—NH2 (SEQ ID NO:8) were quantitated [in comparison with Ac-PHSCN—NH2 (SEQ ID NO:12) as well as a scrambled peptide Ac-HSPNC—NH2 (SEQ ID NO:15)] with two types of metastatic human cancer cell lines, i.e. a breast cell line (SUM 52 PE) and a prostate cell line (DU 145) (see FIG. 3 and FIG. 4, respectively), as well as human microvascular cells (“hmvec”) (see FIG. 5). These modified peptides prevent breast cancer and prostate cancer invasion at concentrations in the pg/ml range.
Table I compares IC50's of Ac-PHSCN—NH2 (“PHSCN”) (SEQ ID NO:12), Ac-PhScN—NH2 (SEQ ID NO:8) (“PhScN”), Ac-PHScN—NH2 (SEQ ID NO:7) (“PHScN”), and the S-methylated and S-acetylated PHSCN derivatives [Ac-PHSC(S-Me)N—NH2 (SEQ ID NO:3) and Ac-PHSC(S—COCH3)N—NH2 (SEQ ID NO:4)]. The IC50 for PhScN is over 10,000-fold lower than that for PHSCN.

[2] = test system: DU 145 prostate cancer cells; details: 20 ug per ml, one hour preincubation, then irradiation
α5β1 integrin [3] = target: T1, α5β1 integrin (Homo sapiens, UniProt P08648); experiment: surface α5β1 levels on irradiated pancreatic cancer cells (immunofluorescence); assay type: cell-based; parameters: surface α5β1 levels on irradiated pancreatic cancer cells; endogenous in cells; host or cells: Panc1 and BxPC-3 pancreatic cancer cells; details: 1 μg per ml prebound 1 hour; Panc1 2 Gy, BxPC-3 3 Gy; 1 hr and 2 hr
Method: In this example, antibodies are used to measure downregulation of surface α5β1 levels on irradiated pancreatic cancer cells. Cells were prebound to 1 μg per ml Ac-PHSCN—NH2 (SEQ ID NO:12) peptide per 20,000 cells in medium containing 10% fetal bovine serum for serum for 1 hour at 37° C. The peptide-containing medium was removed, and replaced with serum-containing medium, prior to irradiation. Adherent cells were irradiated once: 2 Gy for Panc1 cells, and 3 Gy for BxPC-3 cells. One hour after irradiation, cells were quickly rinsed with phosphate-buffered saline (PBS) pH 7.4), then fixed for 15 minutes in 4% Paraformaldahyde (commercially available from Fluka) in PBS at room temperature. […] After three PBS washes, cells were incubated in anti-mouse IgG secondary antibody, conjugated with fluorosceine isothiocyanate (FITC) fluorescence marker (commercially available from Jackson ImmunoResearch Lab, Inc) at 1:200 dilution for 1 h at room temperature. […]
Means and first standard deviations (SD) were calculated using Image-Pro Plus software over 30 areas per treatment selected randomly under 400-fold magnification, then copied and pasted on Microsoft Excel data sheets for further data analysis. All data (see FIG. 10) are expressed as mean±SD and evaluated with ANOVA Student t-test. […]

[4] = test system: human breast and prostate cancer cell lines; details: systemic; cited from earlier work
[5] = test system: hmvec, normal human microvascular cells; details: cited from earlier work
end-stage human cancers = details: cited from earlier work
DU 145 prostate cancer = experiment: subcutaneous DU 145 tumors in nude mice, systemic therapy; assay type: in vivo, athymic nude mice
Method: In this example, PHSCN peptides, where two L-amino acids are substituted with D-amino acids, were tested in vivo. FIG. 6 compares the antitumorigenic effects of systemic Ac-PhScN—NH2 (SEQ ID NO:8) therapy at three different dosages (0.5, 0.05, and 0.005 micrograms per kg) with the antitumorigenic effects of 0.5 mg (500 micrograms) per kg of Ac-PHSCN—NH2 (SEQ ID NO:12) therapy using the DU 145 prostate cancer (as well as with untreated controls). The experiment involved generating subcutaneous DU 145 tumors in nude mice. More specifically, 500,000 suspended DU 145 cells were injected subcutaneously into the flanks of athymic nude mice. All mice were allowed to grow untreated DU 145 tumors in their flanks for about 8 weeks. All 3 therapies (i.e. using the three different dosages) were administered thrice-weekly by tail vein injection after the tumors became palpable. Each treatment group consisted of 8 intramuscular (flank) tumors. After 7 weeks of treatment, when the untreated tumors were very large, all mice were sacrificed at the same time, and all tumors dissected out and measured.

Panc1 cells = experiment: invasion of irradiated cells on SU-ECM basement membranes; assay type: cell-based; details: 1 μg/ml peptide, single 2 Gy dose, 16 hours
Method: (§1) Adherent BxPC-3 and Panc1 cells were irradiated. Panc1 cells received a single 2 Gy dose. BxPC-3 cells received a single 3 Gy dose. Approximately 45 minutes later, the cells were suspended (trypsinized), pelleted and resuspended in medium containing 10% fetal calf serum. Then, the appropriate concentration of the Ac-PHSCN—NH2 (SEQ ID NO: 12) peptide, as well as a scrambled peptide Ac-HSPNC—NH2 (SEQ ID NO:15), was added to the suspended cells to make a final peptide concentration of 1 μg/ml, and they were dropped onto the surfaces of SU-ECM (sea urchin embryo basement membranes). At the time the cells were placed on the basement membranes, one hour had elapsed since irradiation. Cells were incubated on the basement membranes for 16 hours at 37° C. in 5% CO2, prior to scoring at 400-fold magnification, under phase contrast optics. All single cells adherent to the basement membranes were scored, with respect to whether they were inside the basement membranes (invaded), or were still adherent to the exterior surface (uninvaded). Mean invasion percentages were determined with their first standard deviations for each sample.

BxPC-3 cells = experiment: as above; assay type: cell-based; details: 1 μg/ml peptide, single 3 Gy dose, 16 hours
Method: as §1

α5β1 integrin [6] = target: T1, α5β1 integrin; experiment: competition with biotinylated PHSCN binding in SUM149PT cell extracts (blot); details: PhScN:PHSCN ratios 0:1, 1:1, 10:1, 50:1
Excerpt: In this experiment, biotinylated PHSCN peptide (Ac-PHSCNGGK(Bio)-NH2) (SEQ ID NO:18) was mixed with varying amounts of unlabeled Ac-PhScN—NH2 (SEQ ID NO:8). The mixed peptides were bound to detergent extracts of SUM149PT cells. A denaturing, non-reducing gel was run, blotted, and reacted with anti biotin primary antibody (FIG. 7). PhScN:PHSCN ratios were 0:1, 1:1, 10:1, or 50:1, as shown in lanes 2-5, respectively. Lane 1 contains the biotinylated α5β1 control. […] Thus, it is likely to interact with the same target site on α5 integrin as the PHSCN peptide. Alternatively PhScN binding could produce a structural or conformational change in the α5 subunit, such as a change in disulfide bonding pattern, that prevents binding of biotinylated PHSCN.

CSC[C@H](NC(=O)[C@H](CO)NC(=O)[C@H](Cc1c[nH]cn1)NC(=O)[C@@H]1CCCN1C(C)=O)C(=O)N[C@@H](CC(N)=O)C(N)=O [PHSC(S—CH3)N, Ac-PHSC(S—CH3)N—NH2] (Ac-PHSC(Me)N-NH2)
IC50 (concentration exhibiting a 50% inhibition of invasion, relative to stimulated controls) ([1]; 72 h): 1 pg/mL | fold more potent than the unmodified PHSCN [1]: ~1000 fold | invasion-inhibiting potency relative to comparators, in words ([1]; listed as S-Me): many orders of magnitude more potent

CC(=O)N1CCC[C@H]1C(=O)N[C@@H](Cc1c[nH]cn1)C(=O)N[C@@H](CO)C(=O)N[C@@H](CSSC[C@H](NC(=O)[C@H](CO)NC(=O)[C@H](Cc1c[nH]cn1)NC(=O)[C@@H]1CCCN1C(C)=O)C(=O)N[C@@H](CC(N)=O)C(N)=O)C(=O)N[C@@H](CC(N)=O)C(N)=O [(PHSCN)2] (I: Ac-PHSCN-NH2 / II: Ac-PHSCN-NH2; disulfide I:4-II:4; N-terminus and C-terminus assumed)
IC50 (concentration exhibiting a 50% inhibition of invasion, relative to stimulated controls) ([1]; 72 h): 100 to 500 pg/mL

Ac-PHSC(Ac)N-NH2 [PHSC(S—COCH3)N, Ac-PHSC(S—COCH3)N—NH2]
IC50 (concentration exhibiting a 50% inhibition of invasion, relative to stimulated controls) ([1]; 72 h): 0.1 pg/mL | fold more potent than the unmodified PHSCN [1]: ~100,000 fold | invasion-inhibiting potency relative to comparators, in words ([1]; listed as S-OAc): many orders of magnitude more potent

PHSCNGGKMAP [PHSCNGGK-MAP (8), Ac-PHSCNGGK-MAP, multiantigenic peptide dendrimer of the parent peptide]
enhancement ratio (MED control / MED with dendrimer) [2]: larger than one | IC50 (concentration exhibiting a 50% inhibition of invasion, relative to stimulated controls) ([1]; cell type not given): 300 pg/mL

Ac-PHSCN-NH2 [PHSCN, Ac-PHSCN—NH2]
α5β1 expression on irradiated cancer cells (α5β1 integrin [3]): dramatically downregulated | concentration preventing metastatic disease progression [4]: 1 to 2 µM | dosage preventing metastatic disease progression [4]: 0.5 to 50 mg/kg | potency at preventing hmvec invasion [5]: equally potent | IC50 (concentration exhibiting a 50% inhibition of invasion, relative to stimulated controls) ([1]; 72 h): 30,000 pg/ml | adverse events (end-stage human cancers; human, in vivo): without significant adverse events | time metastatic disease progression was prevented (end-stage human cancers; thrice-weekly systemic monotherapy): 4 to 14 months | mean tumor diameter: untreated tumors fold larger relative to treated tumors (DU 145 prostate cancer; 0.5 mg per kg thrice-weekly by tail vein injection, 7 weeks of treatment): over 6 fold | invasion after irradiation (Panc1 cells): reduced invasion to zero | invasion after irradiation (BxPC-3 cells): reduced invasion to zero

CC(=O)N1CCC[C@H]1C(=O)N[C@@H](Cc1c[nH]cn1)C(=O)N[C@@H](CO)C(=O)N[C@H](CS)C(=O)N[C@@H](CC(N)=O)C(N)=O [Ac-PHScN-NH2] (Ac-PHS[dC]N-NH2)
invasion-inhibiting potency relative to comparators, in words [1]: better than the controls, albeit not as potent as the two D-amino acid-containing peptide | IC50 (concentration exhibiting a 50% inhibition of invasion, relative to stimulated controls) ([1]; 72 h): 5 pg/mL

Ac-HSPNC—NH2 (Ac-HSPNC-NH2) [scrambled peptide control]
invasion after irradiation (Panc1 cells): no inhibition of invasiveness | invasion after irradiation (BxPC-3 cells): no inhibition of invasiveness

CC(=O)N1CCC[C@H]1C(=O)N[C@H](Cc1c[nH]cn1)C(=O)N[C@@H](CO)C(=O)N[C@H](CS)C(=O)N[C@@H](CC(N)=O)C(N)=O [Ac-PhScN-NH2] (Ac-P[dH]S[dC]N-NH2)
concentration range demonstrating inhibition of invasion [1]: 3 to 10 pg/ml and 5.0 to 16.7 pM | fold lower IC50 than that for PHSCN [1]: over 10,000 fold | invasion-inhibiting potency relative to comparators, in words [1]: orders of magnitude more potent | IC50 (concentration exhibiting a 50% inhibition of invasion, relative to stimulated controls) ([1]; 72 h): 0.3 pg/mL | visible tumor tissue after treatment (DU 145 prostate cancer; 0.5 μg/kg thrice-weekly by tail vein injection, 7 weeks of treatment): no tumor tissue was visible | potency as inhibitor of tumorigenesis in vivo relative to Ac-PHSCN—NH2 (DU 145 prostate cancer; mouse, in vivo): orders of magnitude more potent | competition for biotinylated PHSCN binding to the α5 integrin subunit (α5β1 integrin [6]): efficient competitor

From patent US8940701B2, “Compounds for, and methods of, treating cancer and inhibiting invasion and metastases” (The Regents of the University of Michigan, priority 2009, dated 2015)
